Results taken from patent US9273075B2, “Prodrugs of 1,4-benzodiazepinone compounds” (BRISTOL-MYERS SQUIBB COMPANY, priority 2012, dated 2016).
≈ marks a conversion by molar mass, not a printed value. Read-outs that look alike come from different tables or passages of the source.

Columns and labels:
[1] = High Throughput Metabolic Stability Panel, mouse liver microsomes
Solution Stability Assay = type: physicochemical
Method: Acetonitrile Stock Solution: Acetonitrile Stock Solution of the prodrug was prepared by dissolving 1.5-2.0 mg of weighted compound in 5.0 mL of acetonitrile in a 5 mL volumetric flask.
pH 6.5 Buffer Working Solution: A pH 6.5 Buffer Working Solution of drug was prepared by adding 1.5 mL of the Acetonitrile Stock Solution to 3.5 mL of stability buffer (50 mM potassium phosphate, pH 6.5) in a 10 mL vial, and mixing. Using a 3 mL syringe, ˜3 mL of solution was withdrawn and filtered using the Gelman 0.45 μm syringe filter into a clean 1.5 mL LC vial. This filtered solution will was used to evaluate the prodrug degradation throughout the course of the study. Target concentration: 90-120 μg/mL (70% Aqueous: 30% Acetonitrile)
pH 4.0 Acidic Working Solution: A pH 4.0 Working Solution of drug was prepared by adding 1.5 mL of the Acetonitrile Stock Solution to 3.5 mL of stability buffer (50 mM sodium acetate, pH 4.0) in a 10 mL vial and mixing. Using a 3 mL syringe, ˜3 mL of solution was withdrawn and filtered using the Gelman 0.45 μm syringe filter into a clean 1.5 mL LC vial. This filtered solution was used to evaluate the prodrug degradation throughout the course of the study. Target concentration: 90-120 μg/mL (70% Aqueous: 30% Acetonitrile)
Experimental Methods: Following the sample preparation procedure described above a single sample (n=1) was prepared for each pH condition. The samples were then placed in an HPLC autosampler maintained at 37° C. and samples were analyzed over a 24 h period. Prodrug remaining (%) was reported relative to the initial peak area (t=0 h). In cases where a conversion to parent half-life could be calculated, a t1/2 was generated. Confirmation of the conversion to parent from the prodrug was obtained by LCMS and HPLC analysis of the final timepoint samples.
Typical LC parameters are shown below: • HPLC System: HP1100 Series, Hewlett Packard., Heated autosampler • Analytical column: Synergi 4 u Hydro C18, 4.6 mm×5.0 cm, PHENOMENEX® • Column temperature: 40° C. • Autosampler temp: 37° C. • Flow rate: 1.0 mL/min • Injection Volume: 10 μL • Mobile Phase: A: Acetonitrile • B: 0.1% Phosphoric acid in water • Run Time: 14.0 minutes Typical LCMS parameters are shown below: • LC-MS System: Surveyor HPLC system, ThermoFinnigan LCQ Deca XP Max (Ion trap) • Analytical column: Synergi 4 u Hydro C18, 4.6 mm×5.0 cm, PHENOMENEX® • Column temperature: 40° C. • Autosampler temp: 22° C. • Flow rate: 1.0 mL/min • Injection Volume: 5 μL • Mobile Phase: A: 95% Acetonitrile/5% 20 mM Ammonium Acetate • B: 5% Acetonitrile/95% 20 mM Ammonium Acetate LCQ Parameters: • Sheath Flow Rate: 81.64 • Aux/Sweep Flow Rate: 19.01 • Current (uA): 10.89 • Voltage (kV): 5.00 • Capillary (C): 348.10 • Capillary Voltage (V): 30.44

[2] = test system: TALL1 Human T-cell acute lymphoblastic leukemia; experiment: Human tumor xenograft in mice: TALL1; type: in vivo; details: FIG. 1; dosed intravenously QD×3, weekly×3; Compound A 3 mg/kg; Example 12 1.5, 3, 6 mg/kg; active = TGI≧50%
[3] = Thermodynamic Equilibrium Aqueous Solubility Assay; type: physicochemical; details: thermodynamic from solid
Method: Standards Preparation: The calibration standard was prepared by accurately weighing 0.5-0.7 mg of sample in 5 ml of methanol. If the material was not fully soluble in methanol, other solvents such as DMSO or mixed solvents were used.
Test Sample Preparation: An excess amount of powder prodrug was equilibrated with 1 mL of buffer (50 mM potassium phosphate, pH 6.5 and 50 mM sodium acetate, pH 4.0) in a 2 mL glass vial. The solution was sonicated and vortexed for ˜30 seconds. The vials were shaken at 300 rpm at room temperature for 24 hrs. The exact incubation time for a specific prodrug was based on the prior aqueous stability data. If the compound was stable in the buffer up to 24 hrs, then the solubility was measured after 24 hrs, otherwise kinetic solubility data was reported. The final saturated solution was then transferred to a 1.5 mL Eppendorf tube and centrifuged for ˜2 min. at 10000 rpms. The supernatant from the saturated solution was transferred to a glass HPLC vial and the solubility was analyzed by HPLC using a four point calibration curve.

[4] = High Throughput Metabolic Stability Panel, dog microsomes; details: control compound values (expected ranges), 10 minutes
[5] = High Throughput Metabolic Stability Panel, monkey microsomes; details: control compound values (expected ranges), 10 minutes
[6] = High Throughput Metabolic Stability Panel, rat microsomes; details: control compound values (expected ranges), 10 minutes
[7] = potassium phosphate buffer with 30% acetonitrile, pH 6.5, read-out: Stability (t1/2, h) pH 6.5 (converted)
[8] = sodium acetate buffer with 30% acetonitrile, pH 4, read-out: Stability (t1/2, h) pH 4.0 (converted)
[9] = potassium phosphate buffer, pH 6.5, aqueous buffer, read-out: Solubility (mg/mL) pH 6.5
[10] = sodium acetate buffer, pH 4, aqueous buffer, read-out: Solubility (mg/mL) pH 4.0

SMILES	half-life (Solution Stability Assay; [7])	half-life (Solution Stability Assay; [8])	solubility at 24 h [3, 9]	solubility at 24 h [3, 10]	further results
NC(=O)[C@@H](CCC(F)(F)F)[C@@H](CCC(F)(F)F)C(=O)N[C@H]1N=C(c2ccccc2)c2ccccc2NC1=O [Compound B, (2R,3S)—N-((3S)-2-Oxo-5-phenyl-2,3-dihydro-1H-1,4-benzodiazepin-3-yl)-2,3-bis(3,3,3-trifluoropropyl)succinamide]					0.5 μM MsLM (% Remaining) ([1]; 0.5 μM compound, mouse liver microsomes, ten-minute incubation, NADPH): 86%; 0.5 μM HLM (% Remaining) (0.5 μM compound, human liver microsomes, ten-minute incubation, NADPH): 88%
CN1C(=O)[C@@H](NC(=O)[C@H](CCC(F)(F)F)[C@H](CCC(F)(F)F)C(=O)NSC[C@H](N)C(=O)O)N=C(c2ccccc2)c2ccccc21 [Example 12, S-(((2S,3R)-6,6,6-Trifluoro-3-(((3S)-1-methyl-2-oxo-5-phenyl-2,3-dihydro-1H-1,4-benzodiazepin-3-yl)carbamoyl)-2-(3,3,3-trifluoropropyl)hexanoyl)amino)-L-cysteine]	251 h	376 h	0.63 mg/mL (≈ 932 µM)	0.82 mg/mL (≈ 1210 µM)	in vivo efficacy against TALL1, activity as defined by the tumor growth inhibition (TGI) [2]: active
CN1CCN(CNC(=O)[C@@H](CCC(F)(F)F)[C@@H](CCC(F)(F)F)C(=O)N[C@H]2N=C(c3ccccc3)c3ccccc3N(C)C2=O)CC1 [Example 15, (2R,3S)—N-((3S)-1-Methyl-2-oxo-5-phenyl-2,3-dihydro-1H-1,4-benzodiazepin-3-yl)-N′-((4-methyl-1-piperazinyl)methyl)-2,3-bis(3,3,3-trifluoropropyl)succinamide]	> 500 h	> 500 h	> 0.41 mg/mL	0.27 mg/mL (≈ 404 µM)	
CN1C(=O)[C@@H](NC(=O)[C@H](CCC(F)(F)F)[C@H](CCC(F)(F)F)C(=O)NCN2CCCCC2)N=C(c2ccccc2)c2ccccc21 [Example 16, (2R,3S)—N-((3S)-1-Methyl-2-oxo-5-phenyl-2,3-dihydro-1H-1,4-benzodiazepin-3-yl)-N′-(1-piperidinylmethyl)-2,3-bis(3,3,3-trifluoropropyl)succinamide]	16 h	250 h	0.01 mg/mL (≈ 15.3 µM)	0.23 mg/mL (≈ 352 µM)	
CN1C(=O)[C@@H](NC(=O)[C@H](CCC(F)(F)F)[C@H](CCC(F)(F)F)C(=O)NCN2CCC(N)CC2)N=C(c2ccccc2)c2ccccc21 [Example 17, (2S,3R)—N-((4-Amino-1-piperidinyl)methyl)-N′-((3S)-1-methyl-2-oxo-5-phenyl-2,3-dihydro-1H-1,4-benzodiazepin-3-yl)-2,3-bis(3,3,3-trifluoropropyl)succinamide]	300 h	250 h	> 1.9 mg/mL	0.56 mg/mL (≈ 837 µM)	
CN1C(=O)[C@@H](NC(=O)[C@H](CCC(F)(F)F)[C@H](CCC(F)(F)F)C(=O)NCN2CCC(N(C)C)CC2)N=C(c2ccccc2)c2ccccc21 [Example 18, (2S,3R)—N-((4-(Dimethylamino)-1-piperidinyl)methyl)-N′-((3S)-1-methyl-2-oxo-5-phenyl-2,3-dihydro-1H-1,4-benzodiazepin-3-yl)-2,3-bis(3,3,3-trifluoropropyl)succinamide]	> 500 h	> 500 h	> 1.05 mg/mL	0.29 mg/mL (≈ 416 µM)	
CN1C(=O)[C@@H](NC(=O)[C@H](CCC(F)(F)F)[C@H](CCC(F)(F)F)C(=O)NCN2CCC(O)CC2)N=C(c2ccccc2)c2ccccc21 [Example 19, (2S,3R)—N-((4-Hydroxy-1-piperidinyl)methyl)-N′-((3S)-1-methyl-2-oxo-5-phenyl-2,3-dihydro-1H-1,4-benzodiazepin-3-yl)-2,3-bis(3,3,3-trifluoropropyl)succinamide]	56 h	> 500 h	> 1.42 mg/mL	0.97 mg/mL (≈ 1450 µM)	
CN1C(=O)[C@@H](NC(=O)[C@H](CCC(F)(F)F)[C@H](CCC(F)(F)F)C(=O)NCN2CCC(O)C2)N=C(c2ccccc2)c2ccccc21 (stereo partly drawn) [Example 20, (2S,3R)—N-((3-Hydroxy-1-pyrrolidinyl)methyl)-N′-((3S)-1-methyl-2-oxo-5-phenyl-2,3-dihydro-1H-1,4-benzodiazepin-3-yl)-2,3-bis(3,3,3-trifluoropropyl)succinamide]	15 h	97 h	0.39 mg/mL (≈ 595 µM)	0.43 mg/mL (≈ 656 µM)	
CN1C(=O)[C@@H](NC(=O)[C@H](CCC(F)(F)F)[C@H](CCC(F)(F)F)C(=O)NCN2CCC(N(C)C)C2)N=C(c2ccccc2)c2ccccc21 (stereo partly drawn) [Example 21, (2S,3R)—N-((3-(Dimethylamino)-1-pyrrolidinyl)methyl)-N′-((3S)-1-methyl-2-oxo-5-phenyl-2,3-dihydro-1H-1,4-benzodiazepin-3-yl)-2,3-bis(3,3,3-trifluoropropyl)succinamide]	376 h	334 h	0.63 mg/mL (≈ 923 µM)	0.64 mg/mL (≈ 937 µM)	
CN1C(=O)[C@@H](NC(=O)[C@H](CCC(F)(F)F)[C@H](CCC(F)(F)F)C(=O)NCN2CCCC2)N=C(c2ccccc2)c2ccccc21 [Example 22, (2R,3S)—N-((3S)-1-Methyl-2-oxo-5-phenyl-2,3-dihydro-1H-1,4-benzodiazepin-3-yl)-N′-(1-pyrrolidinylmethyl)-2,3-bis(3,3,3-trifluoropropyl)succinamide]	7 h		0.03 mg/mL (≈ 46.9 µM)	> 0.39 mg/mL	
CCc1nn(CCCN2CCN(c3cccc(Cl)c3)CC2)c(=O)n1CCOc1ccccc1 [Nefazodone]					Average Percent Remaining ± SD, Mouse ([1]; control compound values (expected ranges), mouse microsomes, 10 minutes): 0.4 ± 0.3%; Average Percent Remaining ± SD, Human (control compound values (expected ranges), human microsomes, 10 minutes): 0.4 ± 0.4%; Average Percent Remaining ± SD, Dog [4]: 0.4 ± 0.4%; Average Percent Remaining ± SD, Monkey [5]: 0.6 ± 0.5%; Average Percent Remaining ± SD, Rat [6]: 0.7 ± 0.6%
